This is an account of results in publication PMC12441834, “Highly Potent and Subtype-Selective Sperm-Specific Potassium Channel SLO3 Inhibitors Display High Tissue Exposure in the Murine Female Reproductive Tract” (ACS Pharmacology & Translational Science, 2025).

The nature of series [1]: Multispecies hepatocyte MetID. Format: in vitro ADME, mouse. As to conditions: 4 h incubation with hepatocytes, 10 μM.
Series [2] concerns the target Bradykinin B2 (Homo sapiens, UniProt P30411). The series can be described thus: LeadProfilingScreen radioligand binding.
Series [3] concerns the target Opiate κ (OP2, KOP) (Homo sapiens, UniProt P41145). The experiment in a line: LeadProfilingScreen radioligand binding.
Series [4] deals with Adrenergic α1B (Homo sapiens, UniProt P35368). The experiment in a line: LeadProfilingScreen radioligand binding.
Chain of Adrenergic α1B (P35368 whole entry): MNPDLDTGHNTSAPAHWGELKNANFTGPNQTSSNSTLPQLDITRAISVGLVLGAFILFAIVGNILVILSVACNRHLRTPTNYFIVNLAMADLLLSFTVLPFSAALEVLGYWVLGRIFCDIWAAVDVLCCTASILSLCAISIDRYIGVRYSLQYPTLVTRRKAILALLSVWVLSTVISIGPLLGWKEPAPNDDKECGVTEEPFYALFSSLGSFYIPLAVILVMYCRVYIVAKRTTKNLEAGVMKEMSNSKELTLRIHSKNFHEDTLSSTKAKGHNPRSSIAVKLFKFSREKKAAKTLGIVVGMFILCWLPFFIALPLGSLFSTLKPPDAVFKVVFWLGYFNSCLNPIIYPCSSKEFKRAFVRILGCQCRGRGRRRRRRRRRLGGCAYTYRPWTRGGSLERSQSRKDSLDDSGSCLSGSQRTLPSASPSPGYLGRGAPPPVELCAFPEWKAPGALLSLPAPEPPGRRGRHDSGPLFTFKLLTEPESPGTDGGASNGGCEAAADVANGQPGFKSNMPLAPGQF
Series [5] has as its target Glutamate, NMDA, Glycine (Rattus norvegicus, UniProt P35439). The series can be described thus: LeadProfilingScreen radioligand binding.
Series [6] concerns the target CYP2C9 (Homo sapiens, UniProt P11712). The series can be described thus: CYP450 inhibition. Format: in vitro ADME. The following applies: read-out: CYP450 Inhibition, 2C9.
For series [7], the target named is Opiate δ1 (OP1, DOP) (Homo sapiens, UniProt P41143). The experiment in a line: LeadProfilingScreen radioligand binding.
Chain of Opiate δ1 (OP1, DOP) (P41143 whole entry): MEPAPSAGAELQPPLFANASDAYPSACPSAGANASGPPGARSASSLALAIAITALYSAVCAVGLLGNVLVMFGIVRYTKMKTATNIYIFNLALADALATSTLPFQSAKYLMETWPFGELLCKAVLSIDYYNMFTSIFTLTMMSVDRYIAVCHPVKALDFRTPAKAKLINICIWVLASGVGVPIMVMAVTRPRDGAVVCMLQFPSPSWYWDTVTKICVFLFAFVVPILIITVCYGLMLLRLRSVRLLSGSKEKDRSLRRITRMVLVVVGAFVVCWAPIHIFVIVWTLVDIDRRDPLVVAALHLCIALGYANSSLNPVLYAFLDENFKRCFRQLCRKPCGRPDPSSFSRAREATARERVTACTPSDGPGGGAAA
The target of series [8] is CYP3A4 (Homo sapiens, UniProt P08684). The series can be described thus: CYP450 inhibition. Format: in vitro ADME. As to conditions: read-out: CYP450 Inhibition, 3A4.
Chain of CYP3A4 (P08684 whole entry, species assumed): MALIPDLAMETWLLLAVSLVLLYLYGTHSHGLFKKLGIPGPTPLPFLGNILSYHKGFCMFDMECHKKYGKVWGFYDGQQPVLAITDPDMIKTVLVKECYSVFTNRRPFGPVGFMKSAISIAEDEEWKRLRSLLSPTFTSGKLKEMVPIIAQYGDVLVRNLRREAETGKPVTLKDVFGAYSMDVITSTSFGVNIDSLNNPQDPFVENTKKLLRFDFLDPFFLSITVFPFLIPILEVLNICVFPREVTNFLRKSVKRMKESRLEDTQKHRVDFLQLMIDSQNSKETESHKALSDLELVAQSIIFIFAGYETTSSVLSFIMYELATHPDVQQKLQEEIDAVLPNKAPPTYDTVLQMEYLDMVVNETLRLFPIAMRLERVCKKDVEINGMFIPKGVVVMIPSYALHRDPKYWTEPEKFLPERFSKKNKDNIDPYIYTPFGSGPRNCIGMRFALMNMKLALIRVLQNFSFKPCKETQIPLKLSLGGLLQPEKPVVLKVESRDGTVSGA
Series [9] addresses Endothelin ETB (Homo sapiens, UniProt P24530). The experiment in a line: LeadProfilingScreen radioligand binding.
The test system of series [10] is GABAA, Muscimol, Central. The series can be described thus: LeadProfilingScreen radioligand binding. Further details: species or system rat.
For series [11], the target named is Neuropeptide Y Y2 (Homo sapiens, UniProt P49146). The series can be described thus: LeadProfilingScreen radioligand binding.
Chain of Neuropeptide Y Y2 (P49146 whole entry, the tested form may be a part): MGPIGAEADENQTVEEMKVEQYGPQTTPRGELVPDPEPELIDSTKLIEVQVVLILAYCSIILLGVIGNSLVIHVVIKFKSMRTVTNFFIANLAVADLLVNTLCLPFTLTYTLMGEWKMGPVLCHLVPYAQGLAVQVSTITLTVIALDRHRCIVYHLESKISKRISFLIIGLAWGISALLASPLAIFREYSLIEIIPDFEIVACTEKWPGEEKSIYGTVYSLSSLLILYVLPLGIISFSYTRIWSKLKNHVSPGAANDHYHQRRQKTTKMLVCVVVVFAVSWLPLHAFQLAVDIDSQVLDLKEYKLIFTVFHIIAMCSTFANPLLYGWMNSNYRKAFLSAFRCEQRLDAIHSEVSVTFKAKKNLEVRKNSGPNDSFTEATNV
The nature of series [12]: Multispecies hepatocyte MetID. Format: in vitro ADME, rat. The following applies: 4 h incubation with hepatocytes, 10 μM. How it is done: Metabolites were identified after preincubating each compound at a 10 μM final concentration with 2.5 × 10^5 hepatocytes from human, dog, cynomolgus monkey, and rat in 200 μL of Optiincubate buffer (BioIVT, Westbury, NY). […] After centrifugation, 60 μL of the supernatant was transferred to 60 μL of water for LC-MS analysis. Samples were analyzed using a Thermo Scientific Vanquish UHPLC consisting of a VH-P10-A pump, a VH-A10-A sampler module, a VH-C10-A column compartment, and the VF-D11-A UV detector coupled to an Orbitrap Fusion Lumos instrument with UVPD. A binary solvent system consisting of (A) water with 0.1% formic acid and (B) acetonitrile with 0.1% formic acid was used with an Accucore Vanquish C18+, 2.1 mm × 100 mm, 1.5 μm, UHPLC column maintained at 40 °C. The data generated by data-dependent acquisition via normal acquisition and AcquireX were processed manually with Thermo Scientific FreeStyle and assisted by Compound Discoverer 3.3.1.111 to aid in the structural assignments.

The target in series [13] is Histamine H1 (Homo sapiens, UniProt P35367). The experiment in a line: LeadProfilingScreen radioligand binding.
Chain of Histamine H1 (P35367 whole entry): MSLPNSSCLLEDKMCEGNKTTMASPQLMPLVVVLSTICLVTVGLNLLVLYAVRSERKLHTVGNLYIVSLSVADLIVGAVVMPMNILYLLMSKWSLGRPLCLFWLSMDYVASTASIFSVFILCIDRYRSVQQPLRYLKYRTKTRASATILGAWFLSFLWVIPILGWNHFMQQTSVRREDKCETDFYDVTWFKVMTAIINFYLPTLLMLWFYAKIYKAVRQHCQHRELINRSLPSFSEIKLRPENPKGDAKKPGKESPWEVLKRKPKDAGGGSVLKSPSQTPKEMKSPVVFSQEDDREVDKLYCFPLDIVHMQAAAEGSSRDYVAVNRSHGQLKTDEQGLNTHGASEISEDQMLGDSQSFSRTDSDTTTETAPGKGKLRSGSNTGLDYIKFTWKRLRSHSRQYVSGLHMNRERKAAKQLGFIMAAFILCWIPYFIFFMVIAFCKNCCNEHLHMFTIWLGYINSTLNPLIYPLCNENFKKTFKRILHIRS
Series [14] addresses Histamine H2 (Homo sapiens, UniProt P25021). The experiment in a line: LeadProfilingScreen radioligand binding.
The target in series [15] is Muscarinic M3 (Homo sapiens, UniProt P20309). The experiment in a line: LeadProfilingScreen radioligand binding.
Series [16] relates to Rolipram. The series can be described thus: LeadProfilingScreen radioligand binding. Further details: species or system rat.
Series [17] deals with Endothelin ETA (Homo sapiens, UniProt P25101). The experiment in a line: LeadProfilingScreen radioligand binding.
Chain of Endothelin ETA (P25101 21-427): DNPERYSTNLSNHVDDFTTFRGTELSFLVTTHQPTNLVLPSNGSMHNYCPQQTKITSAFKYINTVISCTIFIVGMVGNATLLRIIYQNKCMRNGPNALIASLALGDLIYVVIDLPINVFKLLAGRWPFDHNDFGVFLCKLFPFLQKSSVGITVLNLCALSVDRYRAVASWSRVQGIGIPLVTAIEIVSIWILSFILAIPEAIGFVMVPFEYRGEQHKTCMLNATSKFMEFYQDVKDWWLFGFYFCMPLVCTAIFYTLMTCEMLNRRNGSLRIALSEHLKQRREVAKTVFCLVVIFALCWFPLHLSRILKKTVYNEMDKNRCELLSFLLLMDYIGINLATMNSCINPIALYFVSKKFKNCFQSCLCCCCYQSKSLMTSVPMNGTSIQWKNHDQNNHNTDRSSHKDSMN
Series [18] concerns the target Muscarinic M1 (Homo sapiens, UniProt P11229). The experiment in a line: LeadProfilingScreen radioligand binding.
For series [19], the target named is Serotonin (5-Hydroxytryptamine) 5-HT2B (Homo sapiens, UniProt P41595). The series can be described thus: LeadProfilingScreen radioligand binding.
The target of series [20] is Serotonin (5-Hydroxytryptamine) 5-HT3 (Homo sapiens, UniProt P46098). The series can be described thus: LeadProfilingScreen radioligand binding.
Series [21] has as its target Prostanoid EP4 (Homo sapiens, UniProt P35408). The experiment in a line: LeadProfilingScreen radioligand binding.
The target of series [22] is CYP1A2 (Homo sapiens, UniProt P05177). The series can be described thus: CYP450 inhibition. The class given is in vitro ADME. As to conditions: read-out: CYP450 Inhibition, 1A2.
Chain of CYP1A2 (P05177 whole entry, species assumed): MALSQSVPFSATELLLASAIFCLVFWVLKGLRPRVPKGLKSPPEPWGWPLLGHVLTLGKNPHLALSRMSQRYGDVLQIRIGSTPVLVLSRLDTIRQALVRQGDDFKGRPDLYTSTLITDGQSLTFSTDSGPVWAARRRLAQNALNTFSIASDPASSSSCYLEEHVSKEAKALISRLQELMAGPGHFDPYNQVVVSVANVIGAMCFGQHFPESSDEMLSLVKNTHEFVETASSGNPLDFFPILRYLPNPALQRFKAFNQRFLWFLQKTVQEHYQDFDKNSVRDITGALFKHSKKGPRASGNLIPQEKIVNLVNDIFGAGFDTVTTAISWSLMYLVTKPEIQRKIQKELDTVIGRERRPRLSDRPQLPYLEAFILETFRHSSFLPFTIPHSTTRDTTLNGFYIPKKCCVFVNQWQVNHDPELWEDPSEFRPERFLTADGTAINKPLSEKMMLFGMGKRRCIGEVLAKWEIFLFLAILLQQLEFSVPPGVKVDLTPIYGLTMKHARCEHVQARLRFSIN
The test system of series [23] is Imidazoline I2, Central. The series can be described thus: LeadProfilingScreen radioligand binding. Further details: species or system rat.

Where “and” joins values, the source holds several entries; their conditions need not be identical. Equal entries are not always repeated.

Chain of Histamine H2 (P25021 whole entry): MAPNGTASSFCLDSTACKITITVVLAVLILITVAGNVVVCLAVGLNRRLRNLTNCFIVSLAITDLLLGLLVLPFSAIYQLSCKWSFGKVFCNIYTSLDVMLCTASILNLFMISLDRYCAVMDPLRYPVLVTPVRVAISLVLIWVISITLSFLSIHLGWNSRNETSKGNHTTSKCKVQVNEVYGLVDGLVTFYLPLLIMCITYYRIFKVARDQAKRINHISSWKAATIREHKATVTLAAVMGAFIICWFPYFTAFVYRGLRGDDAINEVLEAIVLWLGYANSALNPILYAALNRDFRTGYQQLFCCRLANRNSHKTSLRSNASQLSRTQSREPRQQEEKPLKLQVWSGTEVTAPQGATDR
Chain of Glutamate, NMDA, Glycine (P35439 394-800 limits assumed): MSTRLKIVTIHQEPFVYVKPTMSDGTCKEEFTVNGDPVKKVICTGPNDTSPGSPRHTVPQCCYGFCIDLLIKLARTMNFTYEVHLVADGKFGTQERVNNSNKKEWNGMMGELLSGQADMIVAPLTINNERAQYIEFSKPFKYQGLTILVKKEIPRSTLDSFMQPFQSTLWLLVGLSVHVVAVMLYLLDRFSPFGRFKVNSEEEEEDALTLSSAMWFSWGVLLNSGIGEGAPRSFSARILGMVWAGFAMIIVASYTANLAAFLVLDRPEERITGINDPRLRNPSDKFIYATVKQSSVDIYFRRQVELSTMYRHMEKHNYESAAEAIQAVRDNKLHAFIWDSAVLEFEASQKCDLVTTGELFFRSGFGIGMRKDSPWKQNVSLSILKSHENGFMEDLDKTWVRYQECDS
Chain of Opiate κ (OP2, KOP) (P41145 whole entry): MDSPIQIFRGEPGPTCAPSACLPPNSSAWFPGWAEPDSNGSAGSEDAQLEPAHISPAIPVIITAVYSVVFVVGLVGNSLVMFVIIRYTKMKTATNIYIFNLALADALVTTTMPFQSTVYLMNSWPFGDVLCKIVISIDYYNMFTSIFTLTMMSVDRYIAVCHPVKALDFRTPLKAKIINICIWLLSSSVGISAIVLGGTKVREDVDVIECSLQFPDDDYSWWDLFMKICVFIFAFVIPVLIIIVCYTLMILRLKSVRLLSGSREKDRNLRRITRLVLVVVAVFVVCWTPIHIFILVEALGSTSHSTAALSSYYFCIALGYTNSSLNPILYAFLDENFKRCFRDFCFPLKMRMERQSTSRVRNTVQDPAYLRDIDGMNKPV
Chain of Muscarinic M1 (P11229 whole entry): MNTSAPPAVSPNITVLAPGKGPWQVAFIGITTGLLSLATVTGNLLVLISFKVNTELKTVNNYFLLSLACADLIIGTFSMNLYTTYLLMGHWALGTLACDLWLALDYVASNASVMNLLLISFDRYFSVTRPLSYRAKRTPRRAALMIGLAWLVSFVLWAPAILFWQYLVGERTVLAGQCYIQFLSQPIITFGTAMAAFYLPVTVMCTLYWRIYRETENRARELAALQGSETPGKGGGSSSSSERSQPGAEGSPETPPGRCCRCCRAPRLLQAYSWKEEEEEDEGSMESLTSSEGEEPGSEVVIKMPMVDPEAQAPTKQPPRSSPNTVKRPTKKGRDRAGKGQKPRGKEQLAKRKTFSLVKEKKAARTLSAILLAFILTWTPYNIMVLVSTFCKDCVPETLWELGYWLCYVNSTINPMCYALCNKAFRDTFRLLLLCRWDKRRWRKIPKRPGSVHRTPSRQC

Take `O=C(c1ccc(OCc2ccc(OC(F)(F)F)cc2)cc1)N1CCN(c2ccc(C(F)(F)F)cn2)CC1` [VU6032735]: the “% of Parent Related Material, Mouse” value in series [1] is above 98%. Besides, the inhibition at 10 µM in series [2] is -1%; in series [3], -16%; in series [4], -5%; in series [5], -3%; in [7], 7%; in series [9], 1%. Moreover, the inhibition at 10 µM in series [11] is 3%; in [13], 14%; in [14], 6%; in series [15], 7%; in series [17] it was 9%; in series [18], -8%. Further, the values for the inhibition at 10 µM in series [19], in series [20] and in series [21] were -6%, -11% and -2%, respectively. The IC50 in series [6], in series [8] and in series [22] was above 30 µM each time. Moreover, the “% inhibition at 10 μM” value in series [10] is reported as 0%; in series [16], 7%; in series [23] it was -2%. In series [12], the “% of Parent Related Material, Rat” value was above 98%.
`Cc1cc(Cl)cc2sc(O[C@H]3CCN(C(=O)CCCS(=O)(=O)c4cccc(Br)c4)C[C@H]3F)nc12` [VU6047606]: in [1], the “% of Parent Related Material, Mouse” value was 84.99% and > 82%. The inhibition at 10 µM in series [2] was 4%; in [3] it was -13%; in [4], 12%; in [5], -1%; in [7], 12%; in series [9] it was 9%. In addition, the inhibition at 10 µM in series [11] is 10%; in series [13], 11%; in [14] it was -24%; in series [15], 13%; in [17], 5%; in [18], 6%. Moreover, the inhibition at 10 µM is 18% in series [19], -17% in series [20] and 23% in [21]. Also, the IC50 in series [6], in series [8] and in series [22] was above 30 µM in each case. Also, the “% inhibition at 10 μM” value was 1% in series [10], 19% in series [16] and 9% in series [23]. In addition, in series [12], the “% of Parent Related Material, Rat” value is 90.93% and > 82%.
